The target of one test is T1, Wee-1 kinase (Homo sapiens, UniProt P30291).
T1 construct: purchased Invitrogen
Briefly: Inhibitory activity against Wee-1 kinase (Lanthra Screen Wee-1 kinase kit, Tracer 178). Conditions: Wee-1 kinase 5 nM, Tracer 178 50 nM, 1 h room temperature. In kind it is binding. In outline: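 Compound gradient in DMSO mixed with 5 nM Wee-1, 2 nM Eu-anti-GST antibody and 50 nM Tracer 178 (all final). Read after one hour at room temperature; IC50 calculated against the DMSO solvent control.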

The next test has as its system HT29 cells. Briefly: Antiproliferative activity against HT29 cells (Cell Titer-Lumi, ATP content). Conditions: Homo sapiens, HT-29, 72 after compound addition, read-out: HT-29 cells Anti-proliferative activity (IC50 for the inhibition against HT-29 cell growth). The class given is cell-based. In outline:
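Growth inhibition IC50 derived from luminescent ATP content after 72 (units as printed) of compound exposure over a dilution gradient. Seeding density 3000 cells per well; compound added once cells had adhered overnight.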

T1 sequence (P30291 whole entry): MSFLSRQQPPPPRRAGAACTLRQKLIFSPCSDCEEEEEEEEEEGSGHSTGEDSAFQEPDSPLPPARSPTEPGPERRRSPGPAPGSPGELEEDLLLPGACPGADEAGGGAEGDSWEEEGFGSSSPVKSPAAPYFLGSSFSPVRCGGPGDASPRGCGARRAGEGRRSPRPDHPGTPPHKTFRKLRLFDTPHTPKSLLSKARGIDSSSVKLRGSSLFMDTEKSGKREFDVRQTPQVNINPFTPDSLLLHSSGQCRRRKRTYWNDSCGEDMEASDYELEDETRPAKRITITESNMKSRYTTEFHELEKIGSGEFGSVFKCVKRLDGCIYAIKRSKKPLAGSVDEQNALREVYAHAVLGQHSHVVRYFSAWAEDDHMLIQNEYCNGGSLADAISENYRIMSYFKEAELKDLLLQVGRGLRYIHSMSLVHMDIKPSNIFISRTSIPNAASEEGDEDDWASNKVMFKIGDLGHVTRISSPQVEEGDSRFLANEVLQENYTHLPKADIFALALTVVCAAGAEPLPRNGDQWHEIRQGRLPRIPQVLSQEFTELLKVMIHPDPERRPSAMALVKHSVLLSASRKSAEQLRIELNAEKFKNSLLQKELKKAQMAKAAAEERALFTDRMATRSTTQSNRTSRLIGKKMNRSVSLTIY

One may read the IC50 as the concentration that inhibits the measured activity by half. Consider `C=CCn1c(=O)c2cnc(Nc3ccc(N4CCN(C5CC5)CC4)cc3)nc2n1-c1ccc(=O)n(C(C)C)n1` [Compound 33], for which the IC50 was no more than 30 nM against Wee-1 kinase and no more than 1000 nM with HT29 cells.

Take `C=CCn1c(=O)c2cnc(Nc3ccc(N4CCN[C@H](C)C4)c(C)c3)nc2n1-c1ccc(=O)n(C(C)C)n1` [Compound 133]: the IC50 at Wee-1 kinase is no more than 30 nM; in the test on HT29 cells it was no more than 1000 nM.

Take `C=CCn1c(=O)c2cnc(Nc3ccc(N4CCN(CCF)CC4)cc3)nc2n1-c1ccc(=O)n(C(C)C)n1` [Compound 37]: the values for the IC50 against Wee-1 kinase and in the test on HT29 cells were no more than 30 nM and no more than 1000 nM, respectively.

For the molecule `C=CCn1c(=O)c2cnc(Nc3ccc(N4CCN(C)CC4)cc3)nc2n1-c1ccc(=O)n(CC(C)C)n1` [Compound 4], the IC50 against Wee-1 kinase fell in the range of 30 to 100 nM; with HT29 cells, 1000 to 3000 nM.

With `C=CCn1c(=O)c2cnc(Nc3ccc4c(ccn4C4CCNCC4)c3)nc2n1-c1ccc(=O)n(C(C)C)n1` [Compound 269], the IC50 at Wee-1 kinase is no more than 30 nM; in the test on HT29 cells it was no more than 1000 nM.

As to `C=CCn1c(=O)c2cnc(Nc3ccc(N4CCC5(CNC5)C4)c(OC)c3)nc2n1-c1ccc(=O)n(C(C)C)n1` [Compound 171], the IC50 on Wee-1 kinase is no more than 30 nM; in the test on HT29 cells, no more than 1000 nM.

With `C=CCn1c(=O)c2cnc(Nc3ccc(N4CCN(C5CCC5)CC4)cc3)nc2n1-c1ccc(=O)n(C(C)C)n1` [Compound 34], the IC50 at Wee-1 kinase is no more than 30 nM; in the test on HT29 cells it was no more than 1000 nM.

On to `Cc1cc(Nc2ncc3c(=O)n(C(C)C)n(-c4ccc(=O)n(C(C)(C)C)c4)c3n2)ccc1C1CCN(C)CC1` [Compound 336], for which the IC50 is no more than 30 nM at Wee-1 kinase and no more than 1000 nM in the test on HT29 cells.

As for `Cc1cc(Nc2ncc3c(=O)n(C4CC4)n(-c4ccc(=O)n(C(C)(C)C)n4)c3n2)ccc1C1CCN(C)CC1` [Compound 294], the values for the IC50 at Wee-1 kinase and with HT29 cells were no more than 30 nM and no more than 1000 nM, respectively.

As for `C=CCn1c(=O)c2cnc(Nc3ccc(N4CCC(C)(NC)CC4)c(OC)c3)nc2n1-c1ccc(=O)n(C(C)C)n1` [Compound 112], the figures for the concentration for half-maximal inhibition (IC50) against Wee-1 kinase and in the test with HT29 cells were no more than 30 nM and no more than 1000 nM, respectively.

Consider `CN1CCN(c2ccc(Nc3ncc4c(=O)n(C5CC5)n(-c5ccc(=O)n(C(C)(C)C)c5)c4n3)cc2)CC1` [Compound 338], for which the IC50 against Wee-1 kinase was no more than 30 nM; in the test on HT29 cells it was no more than 1000 nM.

Turning to `C=CCn1c(=O)c2cnc(Nc3ccc(N4CCN(C)CC4)cc3)nc2n1-c1ccc(=O)n(C(C)(C)COC)n1` [Compound 19], the 50% inhibitory concentration (IC50) against Wee-1 kinase was no more than 30 nM; with HT29 cells it was 1000 to 3000 nM.

In the case of `C=CCn1c(=O)c2cnc(Nc3ccc(OCCN(C)C)c(C)c3)nc2n1-c1ccc(=O)n(C(C)C)n1` [Compound 217], the IC50 against Wee-1 kinase is no more than 30 nM; in the test with HT29 cells, no more than 1000 nM.

In the case of `C=CCn1c(=O)c2cnc(Nc3ccc(N4CCC(N5CCCC5)CC4)c(C)c3)nc2n1-c1ccc(=O)n(C(C)C)n1` [Compound 90], the IC50 on Wee-1 kinase was no more than 30 nM; with HT29 cells, no more than 1000 nM.

With `C=CCn1c(=O)c2cnc(Nc3ccc(N4CC(N(C)C)C4)c(C)c3)nc2n1-c1ccc(=O)n(C(C)C)n1` [Compound 78], the values for the IC50 at Wee-1 kinase and with HT29 cells were no more than 30 nM and no more than 1000 nM, respectively.

In the case of `C=CCn1c(=O)c2cnc(Nc3ccc(N4CCN(C)[C@H](C)C4)cc3)nc2n1-c1ccc(=O)n(C(C)C)n1` [Compound 132], the IC50 at Wee-1 kinase is no more than 30 nM; with HT29 cells, no more than 1000 nM.

`CCn1c(=O)c2cnc(Nc3ccc(N4CCN(C)CC4)c(C)c3)nc2n1-c1cc(F)c(=O)n(C(C)C)c1` [Compound 316]: the IC50 against Wee-1 kinase is no more than 30 nM; with HT29 cells it was no more than 1000 nM.

Consider `C=CCn1c(=O)c2cnc(Nc3ccc(N4CCC(NC)CC4)c(C)c3)nc2n1-c1ccc(=O)n(C(C)C)n1` [Compound 105], for which the IC50 on Wee-1 kinase is no more than 30 nM; in the test with HT29 cells, no more than 1000 nM.

Take `C=CCn1c(=O)c2cnc(Nc3ccc(N4CCC5(CCNCC5)CC4)c(OC)c3)nc2n1-c1ccc(=O)n(C(C)C)n1` [Compound 183]: the values for the IC50 against Wee-1 kinase and in the test with HT29 cells were no more than 30 nM and no more than 1000 nM, respectively.

On to `C=CCn1c(=O)c2cnc(Nc3ccc(N4CCN(C)CC4)c(C)c3)nc2n1-c1ccc(=O)n(C(C)C)n1` [Compound 42], for which the figures for the IC50 against Wee-1 kinase and with HT29 cells were no more than 30 nM and no more than 1000 nM, respectively.

Turning to `C=CCn1c(=O)c2cnc(Nc3ccc(N4CC5(CNC5)C4)cc3)nc2n1-c1ccc(=O)n(C(C)C)n1` [Compound 154], the IC50 against Wee-1 kinase was no more than 30 nM; with HT29 cells, 1000 to 3000 nM.

Turning to `C=CCn1c(=O)c2cnc(Nc3ccc(N4CCN(C)CC4)cc3)nc2n1-c1ccc(=O)n(CC(F)F)n1` [Compound 7], the IC50 against Wee-1 kinase lay within 30 to 100 nM; in the test with HT29 cells, 1000 to 3000 nM.

Regarding `C=CCn1c(=O)c2cnc(Nc3ccc(N4CCN(CC)CC4)cc3)nc2n1-c1ccc(=O)n(C(C)C)n1` [Compound 32], the IC50 at Wee-1 kinase was no more than 30 nM; in the test on HT29 cells, no more than 1000 nM.

`C=CCn1c(=O)c2cnc(Nc3ccc(N4C[C@@H](C)N[C@@H](C)C4)c(C(F)(F)F)c3)nc2n1-c1ccc(=O)n(C(C)C)n1` [Compound 122]: the IC50 at Wee-1 kinase is no more than 30 nM; with HT29 cells it was no more than 1000 nM.

Consider `C=CCn1c(=O)c2cnc(Nc3cccc(C4CCNCC4)c3)nc2n1-c1ccc(=O)n(C(C)C)n1` [Compound 204], for which the values for the 50% inhibitory concentration (IC50) on Wee-1 kinase and in the test on HT29 cells were no more than 30 nM and no more than 1000 nM, respectively.

As for `C=CCn1c(=O)c2cnc(Nc3ccc(C4CCN(C)CC4)c(OC)c3)nc2n1-c1ccc(=O)n(C(C)C)n1` [Compound 195], the IC50 on Wee-1 kinase was no more than 30 nM; with HT29 cells, no more than 1000 nM.

`CC(C)n1cc(-n2c3nc(Nc4ccc(N5CCN(C)CC5)cc4)ncc3c(=O)n2C2CC2)ccc1=O` [Compound 307]: the figures for the IC50 against Wee-1 kinase and in the test on HT29 cells were no more than 30 nM and no more than 1000 nM, respectively.

For `CCn1c(=O)c2cnc(Nc3ccc4c(c3)CN(C)CC43CC3)nc2n1-c1ccc(=O)n(C(C)C)c1` [Compound 302], the IC50 against Wee-1 kinase is no more than 30 nM; in the test with HT29 cells, no more than 1000 nM.

In the case of `C=CCn1c(=O)c2cnc(Nc3ccc(C4(C)CCN(C)CC4)cc3)nc2n1-c1ccc(=O)n(C(C)C)n1` [Compound 201], the results for the IC50 against Wee-1 kinase and with HT29 cells were no more than 30 nM and no more than 1000 nM, respectively.

As for `C=CCn1c(=O)c2cnc(Nc3ccc(N4CC[C@H](N(C)C)C4)c(C)c3)nc2n1-c1ccc(=O)n(C(C)C)n1` [Compound 93], the figures for the IC50 against Wee-1 kinase and in the test on HT29 cells were no more than 30 nM and no more than 1000 nM, respectively.

On to `C=CCn1c(=O)c2cnc(Nc3ccc(N4CCC(N5CCCC5)CC4)cc3)nc2n1-c1ccc(=O)n(C(C)C)n1` [Compound 89], for which the IC50 against Wee-1 kinase was no more than 30 nM; in the test on HT29 cells it was no more than 1000 nM.

For the molecule `C=CCn1c(=O)c2cnc(Nc3ccc(N4CCN(C)CC4)c(OC)c3)nc2n1-c1cc(F)c(=O)n(C(C)C)c1` [Compound 311], the results for the IC50 at Wee-1 kinase and in the test with HT29 cells were no more than 30 nM and no more than 1000 nM, respectively.

Turning to `C=CCn1c(=O)c2cnc(Nc3ccc(N4CC5(CNC5)C4)c(OC)c3)nc2n1-c1ccc(=O)n(C(C)C)n1` [Compound 156], the results for the half-inhibitory concentration (IC50) on Wee-1 kinase and with HT29 cells were no more than 30 nM and 1000 to 3000 nM, respectively.

Take `C=CCn1c(=O)c2cnc(Nc3ccc(N4CCN(C5CCN(C)CC5)CC4)cc3)nc2n1-c1ccc(=O)n(C(C)C)n1` [Compound 36]: the IC50 against Wee-1 kinase was no more than 30 nM; in the test with HT29 cells it was no more than 1000 nM.

As to `C=CCn1c(=O)c2cnc(Nc3ccc(N4CCN(C)CC4)cc3)nc2n1-c1cc(C(F)F)c(=O)n(C(C)C)c1` [Compound 26], the half-inhibitory concentration (IC50) against Wee-1 kinase was no more than 30 nM; in the test on HT29 cells, no more than 1000 nM.

As for `C=CCn1c(=O)c2cnc(Nc3ccc4c(c3)CN(C)C4)nc2n1-c1ccc(=O)n(C(C)C)n1` [Compound 222], the values for the half-maximal inhibitory concentration (IC50) against Wee-1 kinase and in the test on HT29 cells were no more than 30 nM and no more than 1000 nM, respectively.

Turning to `C=CCn1c(=O)c2cnc(Nc3ccc(N4CC[C@@H](N(C)C)C4)c(OC)c3)nc2n1-c1ccc(=O)n(C(C)C)n1` [Compound 97], the concentration for half-maximal inhibition (IC50) against Wee-1 kinase is no more than 30 nM; in the test on HT29 cells, no more than 1000 nM.

`C=CCn1c(=O)c2cnc(Nc3ccc(CCN(C)C)cc3)nc2n1-c1ccc(=O)n(C(C)C)n1` [Compound 214]: the IC50 on Wee-1 kinase is no more than 30 nM; in the test with HT29 cells, no more than 1000 nM.

`C=CCn1c(=O)c2cnc(Nc3ccc(N4CC[C@H](N(C)C)C4)c(OC)c3)nc2n1-c1ccc(=O)n(C(C)C)n1` [Compound 94]: the results for the IC50 against Wee-1 kinase and with HT29 cells were no more than 30 nM and no more than 1000 nM, respectively.

As to `C=CCn1c(=O)c2cnc(Nc3ccc(N4CCC5(CCNCC5)CC4)c(C)c3)nc2n1-c1ccc(=O)n(C(C)C)n1` [Compound 182], the values for the IC50 at Wee-1 kinase and in the test with HT29 cells were no more than 30 nM and no more than 1000 nM, respectively.

Regarding `C=CCn1c(=O)c2cnc(Nc3ccc(N4CCN(CC(F)(F)F)CC4)cc3)nc2n1-c1ccc(=O)n(C(C)C)n1` [Compound 39], the figures for the IC50 on Wee-1 kinase and with HT29 cells were no more than 30 nM and no more than 1000 nM, respectively.

Take `C=CCn1c(=O)c2cnc(Nc3ccc(N4CC5CCC(C4)N5)c(C)c3)nc2n1-c1ccc(=O)n(C(C)C)n1` [Compound 137]: the IC50 on Wee-1 kinase was no more than 30 nM; in the test with HT29 cells, 1000 to 3000 nM.

Turning to `Cc1cc(Nc2ncc3c(=O)n(C4CC4)n(-c4ccc(=O)n(C(C)(C)C)c4)c3n2)ccc1C1CCN(C)CC1` [Compound 340], the IC50 at Wee-1 kinase was no more than 30 nM; in the test with HT29 cells, no more than 1000 nM.

Consider `C=CCn1c(=O)c2cnc(Nc3cnn(C4CCN(C(C)C)CC4)c3)nc2n1-c1ccc(=O)n(C(C)C)n1` [Compound 251], for which the IC50 was 30 to 100 nM on Wee-1 kinase and 1000 to 3000 nM in the test with HT29 cells.

For `C=CCn1c(=O)c2cnc(Nc3ccc(N4CCC(N5CCC5)CC4)cc3)nc2n1-c1ccc(=O)n(C(C)C)n1` [Compound 86], the concentration for half-maximal inhibition (IC50) against Wee-1 kinase was no more than 30 nM; in the test on HT29 cells, no more than 1000 nM.

With `C=CCn1c(=O)c2cnc(Nc3ccc(N4CC5CCC(C4)N5C)c(C)c3)nc2n1-c1ccc(=O)n(C(C)C)n1` [Compound 138], the values for the IC50 against Wee-1 kinase and with HT29 cells were no more than 30 nM and 1000 to 3000 nM, respectively.

Consider `C=CCn1c(=O)c2cnc(Nc3ccc(N4CCC(N5CCCCC5)CC4)c(C)c3)nc2n1-c1ccc(=O)n(C(C)C)n1` [Compound 146], for which the IC50 is no more than 30 nM against Wee-1 kinase and no more than 1000 nM with HT29 cells.

Source of the values: US12522607B2, “Substituted pyrazolo[3,4-d]pyrimidines as wee-1 inhibitors” (WIGEN BIOMEDICINE TECHNOLOGY (SHANGHAI) CO., LTD., priority 2020, dated 2026).
